Assay [1] has as its target T1, PHL (Photorhabdus asymbiotica, UniProt C7BLE4). The format is binding. The conditions noted are these: for Median: calculated from hexaplicates; for relative binding / preference on glycan array: PHL 200 μg/ml.
The target of assay [2] is T1, PHL. Nature of the assay: Haemagglutination inhibition assay with PHL. To be noted: for Potency towards L-fucose: haemagglutination inhibition, from MIC; for MIC (minimal inhibitory concentration) of haemagglutination by PHL: microscopy. The format is cell-based. Here is the method:
A haemagglutination inhibition assay was performed to determine the specificity and semi-quantitative affinity of PHL interaction with the saccharides. A wide range of monosaccharides at concentrations from 50 mM to 0.5 mM were used for determining the lowest inhibiting concentration. A 20 μl mixture composed of 5 μl PHL (2mg/ml), 5 μl saccharide, and 10 μl 10% RBCs was prepared (all components of reaction were in PBS buffer). After 10 minutes, the reaction was observed using a Levenhuk microscope.

The target of assay [3] is T1, PHL. The assay is described as follows: Isothermal titration calorimetry (ITC). Format: binding. Here is the method:
ITC experiments were performed using an ITC200 calorimeter (Malvern, England). Experiments were performed at 25°C in buffer A (300 mM NaCl, 20 mM Tris/HCl, pH 7.5). Carbohydrate ligands were dissolved in the same buffer. Protein in the cell (50 μM) was titrated by consecutive addition (2 μl) of the ligand in the syringe (1.5–50 mM) while stirring at 1000 rpm. Control experiments performed with injections of buffer in the protein solution yielded insignificant signals. Integrated heat effects were analyzed by nonlinear regression using a single-site binding model in Origin 7 (Microcal). The experimental data fitted to a theoretical titration curve brought up stoichiometry (n), association constant Ka, and the enthalpy of binding ΔH. The other thermodynamic parameters such as free energy (ΔG) and […] (ΔS) were calculated from the equation ΔG = ΔH-TΔS = -RTlnKa, where T is the absolute temperature and R is the molar gas constant (8.314 J.mol^-1.K^-1). At least two independent titrations were carried out for each tested ligand.
Background: In ITC the heat of successive injections is recorded.

Assay [4] concerns the target T1, PHL. Nature of the assay: SPR inhibition of PHL binding to immobilized L-fucoside. To be noted: for Potency relative to L-Fuc: SPR inhibition, from IC50; for IC50: SPR, PHL 0.25 μM binding to immobilized L-fucoside, 25°C, read-out: IC50. Here is the method: SPR inhibition experiments were performed using the same conditions described above. The PHL lectin (0.25 μM final concentration) was mixed with various concentrations of inhibitors (1M – 0.01 mM) and injected onto the sensor chip. Pure PHL lectin was used as a control (0% inhibition). The response of the lectin bound to the sugar surface at equilibrium was plotted against the concentration of inhibitor in order to determine IC50.

The mark [5] stands for this setting: glycan array signal of PHL per printed glycan, microarray chip (Semiotic, Moscow; Slide number 10085636), 488 channel.
Where [6] appears, read: ITC at 25°C, stoichiometry fixed to 3, read-out: KD (n = 3).
The mark [7] stands for this setting: ITC at 25°C, stoichiometry fixed to 4, read-out: KD (n = 4).
Setting [8] is: glycan array signal of labelled PHL for the printed glycan/polysaccharide, Semiotic slide 10085636.

The values below come from paper PMC5584973, “Characterization of novel bangle lectin from Photorhabdus asymbiotica with dual sugar-binding specificity and its effect on host immunity” (PLoS Pathogens, 2017).

Where two headings read alike, the source gives them in different places. Some results are limits rather than exact numbers.

T1 sequence (C7BLE4 1-369): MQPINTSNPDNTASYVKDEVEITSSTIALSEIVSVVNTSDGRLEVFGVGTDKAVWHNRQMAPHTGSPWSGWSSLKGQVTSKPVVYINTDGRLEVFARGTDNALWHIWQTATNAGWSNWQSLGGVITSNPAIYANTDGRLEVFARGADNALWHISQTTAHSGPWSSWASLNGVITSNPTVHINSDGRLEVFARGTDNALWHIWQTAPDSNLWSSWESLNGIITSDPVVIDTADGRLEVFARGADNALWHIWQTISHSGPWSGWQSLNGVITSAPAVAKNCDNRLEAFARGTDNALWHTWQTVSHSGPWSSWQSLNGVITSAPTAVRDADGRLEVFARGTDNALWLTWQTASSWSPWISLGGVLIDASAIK

For Galβ1-6Galβ-sp4, at PHL [1] (setting [5]), the Median was 85.
With `OC[C@H]1OC(O)[C@@H](O)[C@@H](O)[C@@H]1O` (stereo partly drawn) [D-Man, D-mannose], on PHL [2], the “Potency towards L-fucose” value was under 0.01. For the same compound, the Kd on PHL [3] (setting [6]) is 44600 ± 2000 µM; on PHL [3] (setting [7]) it was 44400 ± 2000 µM. Moreover, the “Potency relative to L-Fuc” value on PHL [4] is under 0.01.
Take GalNAcβ1-4GlcNAcβ-sp2: the Median at PHL [1] (setting [5]) is given as 87.
On to `CC(=O)N[C@H]1C(O)O[C@H](CO)[C@@H](O[C@@H]2O[C@@H](C)[C@@H](O)[C@@H](O)[C@@H]2O)[C@@H]1O` (stereo partly shown) [Fucα1-4GlcNAc], for which, on PHL [2], the “Potency towards L-fucose” value stood at 1.3 and the “MIC (minimal inhibitory concentration) of haemagglutination by PHL” value (“MIC (minimal inhibitory concentration)” below) is 2500 µM. On PHL [3] (setting [6]), the Kd worked out at 4460 ± 310 µM. Also, at PHL [3] (setting [7]), the Kd was determined as 4370 ± 310 µM. At PHL [4], the “Potency relative to L-Fuc” value is recorded as 0.49 and the IC50 was determined as 730 µM.
In the case of GalNAcα1-3(Fucα1-2)Galβ1-4GlcNAcβ-sp3, the Median at PHL [1] (setting [5]) is recorded as 79.
Regarding 6-O-Su-Galβ1-3GalNAcα-sp3, the Median on PHL [1] (setting [5]) is 81.
In the case of `CC(=O)N[C@@H]1[C@@H](O)[C@H](O[C@@H]2O[C@H](CO)[C@@H](O)[C@H](O)[C@H]2NC(C)=O)[C@@H](CO)O[C@H]1NC(=O)C[C@H](N)C(=O)O` [GlcNAcβ1-4GlcNAcβ-Asn], the Median on PHL [1] (setting [8]) is 77.
On to 6-O-Su-Galβ1-3GlcNAcβ-sp3, for which the Median on PHL [1] (setting [8]) is listed as 73.
As for Galα1-4GlcNAcβ-sp8, the Median on PHL [1] (setting [8]) was 75.
Same read-out and setting: the result for Galα1-3Galβ1-4GlcNAcβ-sp3 reads 70.
Take `C[C@@H]1O[C@@H](O[C@H]2C(O)O[C@H](CO)[C@H](O)[C@@H]2O[C@H]2O[C@H](CO)[C@H](O)[C@H](O)[C@H]2O)[C@@H](O)[C@H](O)[C@@H]1O` (stereo partly shown) [BGB trisaccharide]: at PHL [2], the “Potency towards L-fucose” value is given as 10. On PHL [1], the “relative binding / preference on glycan array” value is listed as “strongest binding to human-related oligosaccharides”. In addition, the Kd at PHL [3] (setting [6]) stood at 570 ± 10 µM; on PHL [3] (setting [7]) it was 510 ± 10 µM; at PHL [3] (ITC, stoichiometry not fixed, read-out: equilibrium dissociation constant), 490 µM. The compound also yielded a binding stoichiometry at PHL [3] (ITC, fitted) of about 4.3. Besides, the “Potency relative to L-Fuc” value on PHL [4] is listed as 5.15; on PHL [4] (listed as blood group B trisaccharide), about 5. Further, at PHL [4], the IC50 is 70 µM.
As for `NCC(O)C(O)C(O)C(O)CO` (stereo not shown) [HOCH2(HOCH)4CH2NH2], the Median on PHL [1] (setting [8]) is given as 70.
As for `CC(=O)N[C@H]1[C@@H](O[C@H]2[C@@H](O)[C@@H](CO)O[C@@H](O)[C@@H]2O[C@@H]2O[C@@H](C)[C@@H](O)[C@@H](O)[C@@H]2O)O[C@H](CO)[C@H](O)[C@@H]1O` [BGA trisaccharide], at PHL [2], the “Potency towards L-fucose” value is 1.3 and the “MIC (minimal inhibitory concentration)” value is 2500 µM. Besides, on PHL [3] (setting [6]), the Kd worked out at 1450 ± 30 µM. On PHL [3] (setting [7]), the Kd was 1380 ± 40 µM. In addition, at PHL [4], the “Potency relative to L-Fuc” value was found to be 1.21 and the half-inhibitory concentration (IC50) was determined as 300 µM.
On to `CC(=O)N[C@H]1C(O)O[C@H](CO)[C@@H](O[C@@H]2O[C@H](CO)[C@H](O)[C@H](O)[C@H]2O[C@@H]2O[C@@H](C)[C@@H](O)[C@@H](O)[C@@H]2O)[C@@H]1O` (stereo partly shown) [BGH trisaccharide], for which the “Potency towards L-fucose” value at PHL [2] is listed as under 0.01. Also, the Kd at PHL [3] (setting [6]) amounted to 4440 ± 190 µM. Further, the Kd on PHL [3] (setting [7]) stood at 4350 ± 190 µM. Further, at PHL [4], the “Potency relative to L-Fuc” value came out at 0.33 and the half-maximal inhibitory concentration (IC50) was 1090 µM.
In the case of `CC(=O)N[C@@H]1[C@@H](O)[C@H](O)[C@@H](CO)O[C@@H]1O` [D-GlcNAc, N-acetyl-D-glucosamine], at PHL [2], the “Potency towards L-fucose” value is on record as under 0.01. Moreover, at PHL [4], the “Potency relative to L-Fuc” value is on record as 0.01 and the half-inhibitory concentration (IC50) was found to be 70500 µM.
As to “Galβ1-4GlcNAcβ1-6(Galβ1-4GlcNAcβ1-3)GalNAcα-sp3”, at PHL [1] (setting [8]), the Median is recorded as 71.
For GlcNAcβ-sp8, the Median at PHL [1] (setting [5]) is 78.
Regarding Curdlan, the Median on PHL [1] (setting [8]) is 75.
In the case of 6-H2PO3Manα-sp3, the Median on PHL [1] (setting [5]) is listed as 83.
Still for that read-out and setting: the result for GlcNAcβ1-4Galβ1-4GlcNAcβ-sp2 reads 86.
Still for that read-out and setting: the result for Galβ1-4GlcNAcβ-sp8 reads 83.
The same measure, in the same setting: the result for `CC(=O)N[C@H]1[C@H](OCCCN)O[C@H](CO)[C@@H](O[C@@H]2O[C@H](CO)[C@H](OS(=O)(=O)O)[C@H](OS(=O)(=O)O)[C@H]2O)[C@@H]1O` [3,4-O-Su2-Galβ1-4GlcNAcβ-sp3] reads 87.
Take `CO[C@H]1O[C@@H](C)[C@@H](O)[C@@H](O)[C@@H]1O` [Me-β-L-Fuc, methyl-β-L-fucopyranoside]: on PHL [2], the “Potency towards L-fucose” value stood at 0.5 and the “MIC (minimal inhibitory concentration)” value was determined as 6250 µM. The Kd at PHL [3] (setting [6]) was determined as 3550 ± 90 µM. The Kd on PHL [3] (setting [7]) stood at 3480 ± 90 µM. Besides, at PHL [4], the “Potency relative to L-Fuc” value is listed as 0.47 and the IC50 came to 770 µM.
Turning to 4-O-Su-Galβ1-4GlcNAcβ-sp3, the Median on PHL [1] (setting [8]) was 77.
Turning to `COC[C@H]1O[C@@H](O[C@@H]2[C@@H](OC)[C@@H](OC)[C@H](Oc3ccc(OCCN)cc3)O[C@H]2C)[C@H](O)[C@@H](OC)[C@@H]1O` [3,6-O-Me2-Glcβ1-4(2,3-O-Me2)Rhaα-O-(p-C6H4)-OCH2CH2NH2], the “relative binding / preference on glycan array” value at PHL [1] is given as “most preferred complex saccharide”.
For the compound `OC[C@H]1OC(O)[C@H](O)[C@@H](O)[C@@H]1O` (stereo partly drawn) [D-Glc], on PHL [2], the “Potency towards L-fucose” value is given as under 0.01. The Kd at PHL [3] (setting [6]) amounted to 3550 ± 150 µM; at PHL [3] (setting [7]), 3480 ± 150 µM. In addition, on PHL [4], the “Potency relative to L-Fuc” value was under 0.01.
In the case of 4,6-O-Su2-Galβ1-4GlcNAcβ-sp2, on PHL [1] (setting [8]), the Median is listed as 77.
For the compound 6-O-Su-Galβ1-3(6-O-Su)GlcNAcβ-sp2, the Median at PHL [1] (setting [5]) is on record as 87.
With `CC(=O)N[C@H]1C(O)O[C@H](CO)[C@@H](O)[C@@H]1O[C@@H]1O[C@@H](C)[C@@H](O)[C@@H](O)[C@@H]1O` (stereo partly shown) [Fucα1-3GlcNAc], on PHL [2], the “Potency towards L-fucose” value is 1.3 and the “MIC (minimal inhibitory concentration)” value came to 2500 µM. The Kd at PHL [3] (setting [6]) came to 3520 ± 210 µM. Further, the Kd at PHL [3] (setting [7]) stood at 3430 ± 210 µM. Besides, at PHL [4], the “Potency relative to L-Fuc” value amounted to 0.53 and the IC50 amounted to 690 µM.
“4,6-O-Su2-GalNAcβ1-4-(3-O-Ac)GlcNAcβ-sp3”: on PHL [1] (setting [5]), the Median is on record as 81.
Regarding GalNAcα1-3Galβ1-4(Fucα1-3)GlcNAcβ-sp3, the Median at PHL [1] (setting [8]) is recorded as 73.
Still for that read-out and setting: then `CC(=O)N[C@H]1[C@@H](OC[C@H](N)C(=O)O)O[C@H](CO)[C@H](O)[C@@H]1O` [GalNAcα1-OSer], with 71.
With `O=C[C@H](O)[C@@H](O)[C@@H](O)[C@H](O)CO` [D-Gal, D-galactose], the “Potency towards L-fucose” value on PHL [2] is listed as under 0.01. In addition, the Kd at PHL [3] (KD (n = 3), ITC at 25°C, stoichiometry fixed to 3) was 890 ± 20 µM; on PHL [3] (KD (n = 4), ITC at 25°C, stoichiometry fixed to 4) it was 830 ± 20 µM. Besides, on PHL [4], the “Potency relative to L-Fuc” value is under 0.01.

A word on the IC50: it is the midpoint of a concentration-inhibition curve.
